Key:
PDGFRβ = biological target: T1, PDGFRβ (Homo sapiens, UniProt P09619); experiment: Inhibition of receptor tyrosine kinases activity assay; assay type: biochemical
T1 construct: purchased invitrogen PV3082

Flt1 = biological target: T2, Flt1 (Homo sapiens, UniProt P17948); experiment: as above; assay type: biochemical
T2 construct: purchased invitrogen PV3666

Flt3 = biological target: T3, Flt3 (Homo sapiens, UniProt P36888); experiment: as above; assay type: biochemical
T3 construct: purchased invitrogen PV3182
T3 sequence (P36888 27-993): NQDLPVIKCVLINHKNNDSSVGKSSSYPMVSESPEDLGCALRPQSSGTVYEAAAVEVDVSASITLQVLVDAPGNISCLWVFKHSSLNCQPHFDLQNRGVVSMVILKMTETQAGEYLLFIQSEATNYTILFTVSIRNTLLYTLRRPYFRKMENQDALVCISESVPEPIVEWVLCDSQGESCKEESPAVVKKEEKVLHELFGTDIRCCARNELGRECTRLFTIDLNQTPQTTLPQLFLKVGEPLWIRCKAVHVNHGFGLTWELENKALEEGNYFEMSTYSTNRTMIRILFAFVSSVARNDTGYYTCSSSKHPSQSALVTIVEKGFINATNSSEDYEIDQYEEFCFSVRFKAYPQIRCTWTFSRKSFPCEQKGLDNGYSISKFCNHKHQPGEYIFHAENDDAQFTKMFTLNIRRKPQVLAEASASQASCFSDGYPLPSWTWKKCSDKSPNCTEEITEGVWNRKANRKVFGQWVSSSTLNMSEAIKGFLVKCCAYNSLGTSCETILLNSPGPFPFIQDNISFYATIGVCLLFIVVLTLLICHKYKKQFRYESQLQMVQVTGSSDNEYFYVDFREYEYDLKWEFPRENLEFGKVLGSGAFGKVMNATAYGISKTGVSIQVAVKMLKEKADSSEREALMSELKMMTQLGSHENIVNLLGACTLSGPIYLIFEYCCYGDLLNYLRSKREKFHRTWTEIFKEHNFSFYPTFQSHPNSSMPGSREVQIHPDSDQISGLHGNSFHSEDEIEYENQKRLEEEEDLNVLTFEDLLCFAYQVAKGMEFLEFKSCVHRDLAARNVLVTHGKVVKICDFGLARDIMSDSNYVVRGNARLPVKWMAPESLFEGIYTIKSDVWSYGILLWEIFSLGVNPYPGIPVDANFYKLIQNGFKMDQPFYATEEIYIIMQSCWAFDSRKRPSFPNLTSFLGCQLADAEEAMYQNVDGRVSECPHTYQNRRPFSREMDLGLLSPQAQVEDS

[1] = test system: HUVEC (human umbilical vein endothelial cells); experiment: Inhibition of cancer cell proliferation assay (SRB); assay type: cell-based; details: mean ± SD, 72 hours
Description: (§1) The cellular assay described here is to test the proliferation inhibition activity of the compound of Example 53 on the cancer cells in vitro using Sulforhodamine B (SRB) method. The cancer cells include HUVEC (human umbilical vein endothelial cells), HT-29 (human colon cancer cells), Mo7e (human megakaryoblastic leukemia cell line), A431 (human epidermoid carcinoma cells), NCI—H526 (small-cell lung cancer cells), and SK—BR-3 (human breast cancer cells).
HUVEC cancer cell: American Type Culture Collection, Cat. No. CRL-1730
(§2) The following in vitro assay is to determine the activity of the tested compound for inhibiting the proliferation of the cancer cells mentioned above. The activity is represented by the IC50 value. The general procedures of the assay are given as follows: Cancer cells mentioned above were chosen and seeded to 96-well cell culture plate at a suitable concentration (e.g., 5000 cells/mL medium). These cells then were incubated in carbon dioxide (CO2) incubator until they reached 85% confluency. […] 72 hours later, the activity of the tested compound for inhibiting the cell proliferation was determined by using Sulforhodamine B (SRB) method. IC50 value on tested cells is calculated by the data of inhibition rates of serial concentrations of the tested compound.

[2] = test system: Mo7e (human megakaryoblastic leukemia cell line); experiment: as above; assay type: cell-based; details: mean ± SD, 72 hours
Description: as §1
Mo7e cancer cell: originally described by Avanzi et al. ((1988) Br. J. Haematol. 69:359-366), was obtained from Genetics Institute (Boston, Mass.) and was maintained in Iscove's modified Dulbecco's medium (Life Technologies, Inc.);
as §2, with “medium).” for “medium). These cells then were incubated in carbon dioxide (CO2) incubator until they reached 85% confluency.”

HT-29(colon cancer) = experiment: Anticancer pharmacodynamic assay in vivo, xenograft; set-up: species or system nude mice; details: for T/C (%): relative tumor volume (%): HT-29 xenograft, d0-20
Description: (§3) The test method and steps are the same with those disclosed in “PHARMACODYNAMIC ASSAYS IN VIVO” of the present invention. The therapeutic effects of the compound of Example 53 against xenografts of colon cancer, non-small cell lung cancer, liver cancer, melanoma, renal cancer in nude mice are estimated.
HT-29(colon cancer): Cell Bank, Chinese Academy of Sciences, TCHu103;
(§4) Nude mice were hypodermic inoculated HT-29 human colon cancer cell. After tumors grew to 100-300 mm^3, mice were randomly divided into teams (d0). The volume of tumors and weigh of the mice were measured for 2-3 times per week. The calculation formula of the volume of tumor (V) is: V=½×a×b^2, a: length of tumor, b: width of tumor.

[3] = test system: Calu-3(non-small cell lung cancer); experiment: as above; set-up: species or system nude mice; details: for T/C (%): relative tumor volume (%) / Note: PR (partial regression), animals: Calu-3 xenograft, d0-20; for Note: PR (partial regression), animals: treatment group n = 6
Description: as §3
Calu-3(non-small cell lung cancer): Cell Bank, Chinese Academy of Sciences, TCHu157;
as §4

Bel-7402(liver cancer) = experiment: as above; set-up: species or system nude mice; details: for T/C (%): relative tumor volume (%): Bel-7402 xenograft
Description: as §3
Bel-7402(liver cancer): Cell Bank, Chinese Academy of Sciences, TCHu10;
as §4

A375 (melanoma) = experiment: as above; set-up: species or system nude mice; details: for T/C (%): relative tumor volume (%): A375 xenograft
Description: as §3
A375 (melanoma): Cell Bank, Chinese Academy of Sciences, TCHu4;
as §4

Caki-1 (renal cancer) = experiment: as above; set-up: species or system nude mice; details: for T/C (%): relative tumor volume (%): Caki-1 xenograft, d0-22
Description: as §3
Caki-1 (renal cancer): Cell Bank, Chinese Academy of Sciences, TCHu135.
as §4

[4] = mean ± SD, 20 μM ATP, 25° C., 45 minutes

T1 sequence (P09619 33-1106): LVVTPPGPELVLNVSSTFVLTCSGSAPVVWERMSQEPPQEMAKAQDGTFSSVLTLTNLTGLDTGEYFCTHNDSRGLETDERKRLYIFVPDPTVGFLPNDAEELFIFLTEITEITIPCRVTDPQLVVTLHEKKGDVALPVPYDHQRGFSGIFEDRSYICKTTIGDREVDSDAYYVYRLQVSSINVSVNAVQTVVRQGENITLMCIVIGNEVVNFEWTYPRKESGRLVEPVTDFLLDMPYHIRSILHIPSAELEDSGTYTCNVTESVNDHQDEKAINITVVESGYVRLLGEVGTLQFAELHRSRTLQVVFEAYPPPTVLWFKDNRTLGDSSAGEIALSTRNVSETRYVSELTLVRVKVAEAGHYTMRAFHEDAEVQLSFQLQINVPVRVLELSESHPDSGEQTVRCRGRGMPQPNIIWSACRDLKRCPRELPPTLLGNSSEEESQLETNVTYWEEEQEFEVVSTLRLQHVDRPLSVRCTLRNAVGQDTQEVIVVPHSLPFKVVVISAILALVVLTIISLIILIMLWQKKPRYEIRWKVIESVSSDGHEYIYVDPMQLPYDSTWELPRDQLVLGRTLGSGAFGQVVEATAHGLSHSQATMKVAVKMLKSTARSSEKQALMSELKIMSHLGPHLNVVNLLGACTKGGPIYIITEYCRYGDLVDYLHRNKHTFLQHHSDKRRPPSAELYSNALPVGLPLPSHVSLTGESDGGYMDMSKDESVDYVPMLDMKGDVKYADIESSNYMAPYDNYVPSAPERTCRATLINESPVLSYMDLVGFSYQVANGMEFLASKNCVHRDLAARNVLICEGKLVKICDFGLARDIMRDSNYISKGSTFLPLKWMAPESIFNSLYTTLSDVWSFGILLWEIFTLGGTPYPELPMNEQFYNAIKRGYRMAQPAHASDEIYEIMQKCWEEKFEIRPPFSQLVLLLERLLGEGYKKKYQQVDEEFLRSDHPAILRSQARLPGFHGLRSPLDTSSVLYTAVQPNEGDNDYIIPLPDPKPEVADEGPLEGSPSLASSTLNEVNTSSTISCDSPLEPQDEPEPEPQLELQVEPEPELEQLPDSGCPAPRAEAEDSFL
T2 sequence (P17948 27-1338): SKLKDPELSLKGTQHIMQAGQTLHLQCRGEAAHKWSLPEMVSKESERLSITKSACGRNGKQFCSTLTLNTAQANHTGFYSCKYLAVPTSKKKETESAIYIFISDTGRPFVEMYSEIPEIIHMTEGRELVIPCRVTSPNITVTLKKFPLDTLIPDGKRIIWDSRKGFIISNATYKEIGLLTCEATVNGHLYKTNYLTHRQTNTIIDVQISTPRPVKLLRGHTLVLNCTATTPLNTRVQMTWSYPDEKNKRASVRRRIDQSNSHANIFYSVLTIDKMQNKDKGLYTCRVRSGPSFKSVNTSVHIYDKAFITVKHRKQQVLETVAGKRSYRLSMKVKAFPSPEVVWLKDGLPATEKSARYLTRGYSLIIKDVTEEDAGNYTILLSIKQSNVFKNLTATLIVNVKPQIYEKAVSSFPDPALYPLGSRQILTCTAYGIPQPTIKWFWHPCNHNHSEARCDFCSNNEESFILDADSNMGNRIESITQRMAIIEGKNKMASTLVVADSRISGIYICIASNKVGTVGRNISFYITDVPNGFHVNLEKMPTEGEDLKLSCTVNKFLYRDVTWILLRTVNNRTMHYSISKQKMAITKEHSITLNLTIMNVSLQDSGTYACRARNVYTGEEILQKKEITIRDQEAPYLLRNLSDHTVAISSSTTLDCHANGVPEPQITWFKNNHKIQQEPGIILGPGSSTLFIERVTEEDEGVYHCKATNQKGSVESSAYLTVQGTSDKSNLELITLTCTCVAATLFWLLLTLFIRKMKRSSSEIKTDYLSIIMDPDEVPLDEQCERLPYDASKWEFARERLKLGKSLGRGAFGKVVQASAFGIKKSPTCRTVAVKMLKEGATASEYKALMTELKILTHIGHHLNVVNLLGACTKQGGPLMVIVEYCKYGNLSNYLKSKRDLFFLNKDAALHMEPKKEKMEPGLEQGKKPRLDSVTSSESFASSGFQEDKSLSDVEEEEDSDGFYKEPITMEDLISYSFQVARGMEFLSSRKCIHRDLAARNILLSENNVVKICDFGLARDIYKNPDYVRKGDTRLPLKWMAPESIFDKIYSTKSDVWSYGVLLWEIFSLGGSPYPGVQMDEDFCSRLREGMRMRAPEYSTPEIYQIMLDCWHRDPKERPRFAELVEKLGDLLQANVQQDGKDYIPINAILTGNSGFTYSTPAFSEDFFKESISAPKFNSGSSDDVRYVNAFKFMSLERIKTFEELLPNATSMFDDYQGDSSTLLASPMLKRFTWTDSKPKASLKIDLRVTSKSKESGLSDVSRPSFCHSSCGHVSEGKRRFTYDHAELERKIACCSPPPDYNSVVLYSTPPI

Cc1c(/C=C2\C(=O)Nc3ccc(F)cc32)[nH]c2c1C(=O)N(C[C@H](O)CN1CCOCC1)CCC2 [Example 53, (R,Z)-2-(5-Fluoro-2-oxo-1,2-dihydro-indol-3-ylidenemethyl)-5-(2-hydroxy-3-morpholin-4-yl-propyl)-3-methyl-5,6,7,8-tetrahydro-1H-pyrrolo[3,2-c]azepin-4-one]
inhibition of kinase activity (in words) (PDGFRβ; PDGFRβ): obvious activity | IC50 (PDGFRβ; [4]): 0.0415 ± 0.0227 µM | inhibition of kinase activity (in words) (Flt1; Flt1): obvious activity | IC50 (Flt1; [4]): 0.0309 ± 0.0057 µM | inhibition of kinase activity (in words) (Flt3; Flt3): obvious activity | IC50 (Flt3; [4]): 0.0193 ± 0.0031 µM | IC50 [1]: 1.1 µM | IC50 [2]: 0.8 µM | anticancer activity against xenograft (in words) (HT-29(colon cancer); HT-29 xenograft in nude mice): obvious anticancer activity | T/C (%): relative tumor volume (%) (HT-29(colon cancer); 15 mg/kg p.o): 49.4% | T/C (%): relative tumor volume (%) (HT-29(colon cancer); 30 mg/kg p.o): 48.5% | T/C (%): relative tumor volume (%) (HT-29(colon cancer); 60 mg/kg p.o): 31.6% | anticancer activity against xenograft (in words) ([3]; Calu-3 xenograft in nude mice): obvious anticancer activity | T/C (%): relative tumor volume (%) ([3]; 15 mg/kg p.o): 26.3% | T/C (%): relative tumor volume (%) ([3]; 30 mg/kg p.o): 14.7% | Note: PR (partial regression), animals ([3]; 30 mg/kg p.o): 3/6(PR) | T/C (%): relative tumor volume (%) ([3]; 60 mg/kg p.o): 16.1% | Note: PR (partial regression), animals ([3]; 60 mg/kg p.o): 3/6(PR) | anticancer activity against xenograft (in words) (Bel-7402(liver cancer); Bel-7402 xenograft in nude mice): obvious anticancer activity | T/C (%): relative tumor volume (%) (Bel-7402(liver cancer); 15 mg/kg p.o d0-17): 39.8% | T/C (%): relative tumor volume (%) (Bel-7402(liver cancer); 30 mg/kg p.o d0-17): 29.2% | T/C (%): relative tumor volume (%) (Bel-7402(liver cancer); 60 mg/kg p.o d0-17): 13.3% | anticancer activity against xenograft (in words) (A375 (melanoma); A375 xenograft in nude mice): obvious anticancer activity | T/C (%): relative tumor volume (%) (A375 (melanoma); 15 mg/kg p.o d0-16): 82.5% | T/C (%): relative tumor volume (%) (A375 (melanoma); 30 mg/kg p.o d0-16): 58.5% | T/C (%): relative tumor volume (%) (A375 (melanoma); 60 mg/kg p.o d0-16): 46.4% | anticancer activity against xenograft (in words) (Caki-1 (renal cancer); Caki-1 xenograft in nude mice): obvious anticancer activity | T/C (%): relative tumor volume (%) (Caki-1 (renal cancer); 15 mg/kg p.o): 73.0% | T/C (%): relative tumor volume (%) (Caki-1 (renal cancer); 30 mg/kg p.o): 45.5% | T/C (%): relative tumor volume (%) (Caki-1 (renal cancer); 60 mg/kg p.o): 36.8%
